Data as given in patent US20150087627A1, “COMBINATION OF KINASE INHIBITORS AND USES THEREOF” (Intellikine LLC, priority 2011, published 2015).

Key:
Type in all cases: biochemical
[1] = target: T1, mTOR (Homo sapiens, UniProt P42345); assay: mTOR kinase inhibition assay (radiometric or LanthaScreen TR-FRET); settings: read-out: mTORC IC50
T1 construct: purchased Invitrogen

[2] = target: T2, PI3K α (p110α/p85α) (Homo sapiens, UniProt P42336); assay: PI 3-Kinase (human) HTRF assay, PI3K α; settings: read-out: PI3K α IC50
T2 construct: purchased Upstate / Millipore Corporation

[3] = target: T3, PI3K β (p110β/p85α) (Homo sapiens, UniProt P42338); assay: PI 3-Kinase (human) HTRF assay, PI3K β; settings: read-out: PI3K β IC50
T3 construct: purchased Upstate / Millipore Corporation

[4] = target: T4, PI3K γ (p110γ) (Homo sapiens, UniProt P48736); assay: PI 3-Kinase (human) HTRF assay, PI3K γ; settings: read-out: PI3K γ IC50
T4 construct: purchased Upstate / Millipore Corporation
Method: Briefly, the assay is a time resolved FRET assay that indirectly measures PIP3 product formed by the activity of a PI3-K. The kinase reaction is performed in a microtiter plate (e.g., a 384 well microtiter plate). The total reaction volume is approximately 20 ul per well. In the first step, each well receives 2 ul of test compound in 20% dimethylsulphoxide resulting in a 2% DMSO final concentration. […] The plate is sealed and incubated for 15 minutes at room temperature. […] The plate is sealed and incubated for 1 hour at room temperature. The reaction is stopped by adding 5 ul of Stop Solution per well and then 5 ul of Detection Mix is added per well. The plate is sealed, incubated for 1 hour at room temperature, and then read on an appropriate plate reader. Data is analyzed and IC50s are generated using GraphPad Prism 5.

[5] = target: T5, PI3K δ (Homo sapiens, UniProt O00329); assay: PI 3-Kinase (human) HTRF assay, PI3K δ; settings: read-out: PI3K δ IC50
T5 construct: purchased Upstate / Millipore Corporation

T1 sequence (P42345 1360-2549 limits assumed): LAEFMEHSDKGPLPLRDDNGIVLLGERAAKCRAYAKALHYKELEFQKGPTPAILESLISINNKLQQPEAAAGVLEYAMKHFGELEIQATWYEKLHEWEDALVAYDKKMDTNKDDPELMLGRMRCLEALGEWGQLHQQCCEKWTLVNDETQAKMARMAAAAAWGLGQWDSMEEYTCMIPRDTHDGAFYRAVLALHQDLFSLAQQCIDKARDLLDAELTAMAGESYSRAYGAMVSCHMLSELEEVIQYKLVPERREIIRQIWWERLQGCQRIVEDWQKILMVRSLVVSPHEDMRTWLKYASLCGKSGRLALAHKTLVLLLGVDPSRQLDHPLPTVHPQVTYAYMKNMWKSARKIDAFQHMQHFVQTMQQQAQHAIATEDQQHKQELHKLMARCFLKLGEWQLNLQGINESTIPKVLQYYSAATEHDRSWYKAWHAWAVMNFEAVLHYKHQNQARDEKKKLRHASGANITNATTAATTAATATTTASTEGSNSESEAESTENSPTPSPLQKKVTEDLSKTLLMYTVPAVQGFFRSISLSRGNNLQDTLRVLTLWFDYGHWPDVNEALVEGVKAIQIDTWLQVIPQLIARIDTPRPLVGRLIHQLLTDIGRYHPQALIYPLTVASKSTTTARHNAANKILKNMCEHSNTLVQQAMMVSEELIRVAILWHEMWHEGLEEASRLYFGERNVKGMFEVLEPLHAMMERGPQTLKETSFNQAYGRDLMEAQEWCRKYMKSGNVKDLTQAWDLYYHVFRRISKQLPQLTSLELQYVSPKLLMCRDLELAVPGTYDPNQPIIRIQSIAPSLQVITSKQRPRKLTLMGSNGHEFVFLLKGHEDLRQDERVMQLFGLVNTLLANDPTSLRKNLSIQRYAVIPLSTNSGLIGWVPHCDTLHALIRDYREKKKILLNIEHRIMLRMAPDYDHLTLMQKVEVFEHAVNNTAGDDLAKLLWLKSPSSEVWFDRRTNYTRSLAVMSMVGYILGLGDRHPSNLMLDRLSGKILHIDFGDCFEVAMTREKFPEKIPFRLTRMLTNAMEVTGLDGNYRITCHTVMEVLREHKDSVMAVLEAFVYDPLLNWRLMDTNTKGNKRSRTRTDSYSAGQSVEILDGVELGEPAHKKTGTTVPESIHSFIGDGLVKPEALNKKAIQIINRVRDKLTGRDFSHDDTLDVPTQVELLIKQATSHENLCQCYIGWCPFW
T2 sequence (P42336 whole entry): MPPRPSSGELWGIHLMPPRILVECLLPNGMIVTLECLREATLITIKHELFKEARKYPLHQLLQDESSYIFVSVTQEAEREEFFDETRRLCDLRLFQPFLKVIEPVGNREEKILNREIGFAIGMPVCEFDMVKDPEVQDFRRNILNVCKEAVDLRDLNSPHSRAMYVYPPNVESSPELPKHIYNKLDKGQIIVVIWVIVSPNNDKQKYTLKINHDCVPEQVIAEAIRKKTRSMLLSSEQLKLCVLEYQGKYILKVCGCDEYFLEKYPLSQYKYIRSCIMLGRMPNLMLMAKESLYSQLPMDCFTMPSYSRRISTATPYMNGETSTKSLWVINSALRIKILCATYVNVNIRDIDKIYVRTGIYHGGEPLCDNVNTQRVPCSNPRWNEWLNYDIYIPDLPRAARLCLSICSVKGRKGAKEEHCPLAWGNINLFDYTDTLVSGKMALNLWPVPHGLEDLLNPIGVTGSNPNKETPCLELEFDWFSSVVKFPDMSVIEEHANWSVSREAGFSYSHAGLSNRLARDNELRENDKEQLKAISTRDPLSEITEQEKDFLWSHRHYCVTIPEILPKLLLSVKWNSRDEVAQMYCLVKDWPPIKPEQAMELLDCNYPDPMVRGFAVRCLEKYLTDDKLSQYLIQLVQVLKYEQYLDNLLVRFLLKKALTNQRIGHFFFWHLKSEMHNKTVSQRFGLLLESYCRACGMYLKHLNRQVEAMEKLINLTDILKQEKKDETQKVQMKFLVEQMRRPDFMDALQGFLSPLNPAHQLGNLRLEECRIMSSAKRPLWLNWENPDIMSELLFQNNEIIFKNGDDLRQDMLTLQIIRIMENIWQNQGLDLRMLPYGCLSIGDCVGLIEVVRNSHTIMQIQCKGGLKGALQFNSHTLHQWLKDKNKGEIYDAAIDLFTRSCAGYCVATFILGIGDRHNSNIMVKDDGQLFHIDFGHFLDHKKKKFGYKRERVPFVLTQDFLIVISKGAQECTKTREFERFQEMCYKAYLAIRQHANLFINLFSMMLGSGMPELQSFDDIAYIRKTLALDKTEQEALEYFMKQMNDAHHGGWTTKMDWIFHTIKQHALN
T2 sequence (P27986 whole entry partner): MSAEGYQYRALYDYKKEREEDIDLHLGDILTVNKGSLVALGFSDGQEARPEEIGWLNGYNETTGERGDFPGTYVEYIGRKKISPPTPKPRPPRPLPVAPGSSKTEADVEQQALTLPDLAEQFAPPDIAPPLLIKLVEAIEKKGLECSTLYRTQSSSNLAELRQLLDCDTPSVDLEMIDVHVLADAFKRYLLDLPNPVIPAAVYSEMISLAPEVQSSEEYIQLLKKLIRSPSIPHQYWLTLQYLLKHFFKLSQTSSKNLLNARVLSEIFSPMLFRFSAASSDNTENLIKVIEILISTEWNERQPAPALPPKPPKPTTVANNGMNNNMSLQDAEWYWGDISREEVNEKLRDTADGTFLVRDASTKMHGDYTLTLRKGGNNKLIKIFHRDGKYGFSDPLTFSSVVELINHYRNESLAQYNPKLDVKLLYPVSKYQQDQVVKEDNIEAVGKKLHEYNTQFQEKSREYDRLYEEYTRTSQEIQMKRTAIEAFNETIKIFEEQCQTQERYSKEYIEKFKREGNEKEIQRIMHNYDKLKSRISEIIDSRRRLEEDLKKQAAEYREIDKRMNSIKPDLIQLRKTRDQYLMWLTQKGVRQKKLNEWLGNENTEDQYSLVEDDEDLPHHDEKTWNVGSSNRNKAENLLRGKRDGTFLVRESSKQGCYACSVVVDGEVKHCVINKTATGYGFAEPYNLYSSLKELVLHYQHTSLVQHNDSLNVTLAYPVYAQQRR
T3 sequence (P42338 whole entry): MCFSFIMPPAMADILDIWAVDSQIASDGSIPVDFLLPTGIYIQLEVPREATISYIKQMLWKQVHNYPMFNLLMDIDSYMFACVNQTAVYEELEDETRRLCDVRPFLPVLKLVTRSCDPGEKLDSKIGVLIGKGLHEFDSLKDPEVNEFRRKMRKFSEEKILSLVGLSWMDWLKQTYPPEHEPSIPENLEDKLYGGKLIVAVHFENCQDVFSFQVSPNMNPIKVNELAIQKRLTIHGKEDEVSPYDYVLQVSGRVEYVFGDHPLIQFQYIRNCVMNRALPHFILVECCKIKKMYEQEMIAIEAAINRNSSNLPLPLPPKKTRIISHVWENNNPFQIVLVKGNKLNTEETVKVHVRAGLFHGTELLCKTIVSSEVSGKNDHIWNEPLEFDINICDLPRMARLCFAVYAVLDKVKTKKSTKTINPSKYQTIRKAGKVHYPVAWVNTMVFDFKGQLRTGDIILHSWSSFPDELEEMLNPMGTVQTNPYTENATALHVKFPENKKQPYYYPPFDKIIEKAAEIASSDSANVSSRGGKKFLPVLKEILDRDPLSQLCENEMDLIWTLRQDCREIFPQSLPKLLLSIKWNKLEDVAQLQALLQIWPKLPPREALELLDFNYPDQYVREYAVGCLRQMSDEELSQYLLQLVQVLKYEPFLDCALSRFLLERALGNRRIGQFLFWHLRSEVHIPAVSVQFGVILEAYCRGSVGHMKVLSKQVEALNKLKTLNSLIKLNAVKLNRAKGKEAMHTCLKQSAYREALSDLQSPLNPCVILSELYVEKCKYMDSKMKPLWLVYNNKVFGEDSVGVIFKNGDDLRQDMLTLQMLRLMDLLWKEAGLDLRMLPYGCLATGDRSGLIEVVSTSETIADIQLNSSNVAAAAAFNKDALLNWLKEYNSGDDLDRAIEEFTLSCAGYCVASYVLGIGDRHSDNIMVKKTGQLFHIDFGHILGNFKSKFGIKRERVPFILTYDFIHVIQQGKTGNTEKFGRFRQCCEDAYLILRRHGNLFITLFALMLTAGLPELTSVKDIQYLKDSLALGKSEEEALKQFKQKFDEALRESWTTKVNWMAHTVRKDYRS
T3 sequence (P27986 whole entry partner): as the sequence (P27986 whole entry partner) above

| Structure (SMILES) | IC50 [1] [µM] | IC50 [2] [µM] | IC50 [3] [µM] | IC50 [4] [µM] | IC50 [5] [µM] |
| --- | --- | --- | --- | --- | --- |
| Nc1nc2cc(-c3ccc4ncc(N5CC(C(=O)N6CCOCC6)C5)nc4c3)ccc2o1 [Compound 169] | < 10 | < 0.1 | < 1 | < 1 | < 1 |
| CN1CCN(C(=O)C2CN(c3cnc4ccc(-c5ccc6oc(N)nc6c5)cc4n3)C2)CC1 [Compound 170] | < 10 | < 0.1 | < 1 | < 10 | < 1 |
| Nc1nc2cc(-c3ccc4ncc(N5CCC(N6CCOCC6)CC5)nc4c3)ccc2o1 [Compound 171] | > 10 | < 0.1 | < 1 | < 1 | < 1 |
| Nc1ncc(-c2ccc3oc(N)nc3c2)cn1 [Compound 233] | > 10 | > 10 | > 10 | < 10 | > 10 |
| CC(=O)Nc1cn2cc(-c3ccc4oc(N)nc4c3)ccc2n1 [Compound 234] | < 1 | < 0.1 | < 1 | < 0.1 | < 0.1 |
| CC(=O)Nc1ncc(-c2ccc3oc(N)nc3c2)s1 [Compound 235] | < 10 | < 10 | > 10 | < 10 | < 10 |
| Nc1nc2cc(-c3ccc4ncc(N5CC[C@H](O)C5)nc4c3)ccc2o1 [Compound 262] | < 10 | < 0.1 | < 1 | < 1 | > 10 |
| C[C@@H]1CN(C(=O)C2CN(c3cnc4ccc(-c5ccc6oc(N)nc6c5)cc4n3)C2)CCN1 [Compound 267] | < 10 | < 0.1 | < 10 | < 1 | < 1 |
| Nc1nc2cc(-c3ccc4ncc(N5CC(C(=O)N6CCN(C7CC7)CC6)C5)nc4c3)ccc2o1 [Compound 276] | < 10 | < 0.1 | < 10 | < 1 | < 1 |
| CN1CCN(c2cnc3ccc(-c4ccc5oc(N)nc5c4)cc3n2)CC1=O [Compound 277] | < 10 | < 0.1 | < 1 | < 1 | < 10 |
| Nc1nc2cc(-c3ccc4ncc(N5CCN(C(=O)[C@@H](N)CO)CC5)nc4c3)ccc2o1 [Compound 298] | < 10 | < 0.1 | < 1 | < 10 | < 10 |
| CN1CCN(C2CN(C(=O)c3cnc4ccc(-c5ccc6oc(N)nc6c5)cn34)C2)CC1 [Compound 303] | < 10 | < 0.1 | > 10 | > 10 | < 10 |
| Nc1nc2cc(-c3ccc4ncc(N5CC(N6CCN(C7CC7)CC6)C5)nc4c3)ccc2o1 [Compound 313] | < 10 | < 0.1 | < 10 | < 10 | < 10 |
| Nc1nc2cc(-c3ccc4ncc(N5CC(N6CC[C@@H](O)C6)C5)nc4c3)ccc2o1 [Compound 315] | < 1 | < 0.1 | < 10 | < 10 | < 10 |
| Nc1nc2cc(-c3ccc4ncc(N5CC(n6cccn6)C5)nc4c3)ccc2o1 [Compound 318] | < 1 | < 0.1 | < 10 | < 1 | > 10 |
| Cc1ccn(C2CN(c3cnc4ccc(-c5ccc6oc(N)nc6c5)cc4n3)C2)n1 [Compound 320] | > 10 | < 0.1 | < 10 | < 10 | < 10 |
| CN1CCN(C2CN(c3cnc4ccc(-c5ccc6oc(N)nc6c5)cc4n3)C2)CC1=O [Compound 323] | > 10 | < 0.1 | < 10 | < 1 | < 10 |
| CCN(CC)C1CN(c2cnc3ccc(-c4ccc5oc(N)nc5c4)cc3n2)C1 [Compound 324] | > 10 | < 0.1 | < 10 | < 1 | < 10 |
